# Test results as given in US5164296A, “Assay methods involving ouabain” (priority 1990, dated 1992).
# How the values were obtained:
# [1] = 6.0 N HCl at 110° C.; cited from earlier work
# [2] = system: catechol-o-methyl transferase (COMT); assay: Substrate for catechol-o-methyl transferase (COMT); assay type: in vitro ADME; conditions: EDLF described in the present invention
# [3] = target: T1, washed human red blood cells (Homo sapiens, UniProt P05023); assay: Inhibition of ouabain-sensitive ^86 Rb uptake by washed human red blood cells; assay type: cell-based
# T1 construct: washed human red blood cells obtained by venipuncture; endogenous in cells; host or cells: washed human red blood cells (venipuncture)
# Protocol: Fractions from the column were assayed for inhibition of ouabain-sensitive ^86 Rb uptake by washed human red blood cells obtained by venipuncture. This assay was used as an index of sodium transport activity (Hamlyn, J.M. et al, J. Biol. Chem., 264:7395-7404 (1989)).
# More specifically, freshly washed cells were incubated for 2 hr at 37° C. (16% final hematocrit) in a final volume of 150 μl of flux buffer comprising 150 mM NaCl, 2.0 mM […] containing tracer amounts of ^86 Rb (DuPont--New England Nuclesr), 1.0 mM MgCl2, 1.0 mM Na2 HPO4, 2.0 mM CaCl2, 5.0 mM glucose and 20 mM HEPES-Tris (pH 7.4) (hereinafter "flux fubber"). Incubations were initiated by addition of column fractions to the cells. Aliquots were removed at various times and mixed with ice-cold flux buffer lacking ^86 Rb to quench the reactions. The quenched reactions were applied to a silicone oil cushion (Hysol XF1792B, Dexter Corp., Olean, N.Y.) in microcentrifuge tubes and centrifuged at 800×g for 10 min at 4° C. The red cell pellet was cut from deep-frozen tubes and trapped ^86 Rb was determined by γ-counting. Flux data were expressed as nmol of Rb uptake/10^8 cells. In each case, a value of 1.11×10^13 cells/liter was used to convert packed cell volumes to cell number for the flux data calculations. Ouabain-insensitive ^86 Rb uptake was estimated in parallel experiments by inclusion of 1.0 mM ouabain in the flux buffer. Ouabain-sensitive ^86 Rb uptake was taken as the total uptake minus that obtained in the presence of 1.0 mM ouabain.
# The inhibition of ouabain-sensitive uptake of ^86 Rb was carried out as described above.
# (Na^+ +K^+)ATPase [4] = target: T2, (Na^+ +K^+)ATPase (Canis lupus familiaris, UniProt P50997); assay: Inhibition of (Na^+ +K^+)ATPase activity (coupled optical assay); assay type: biochemical, dog; conditions: inhibition of (Na^+ +K^+)ATPase activity
# T2 construct: (Na^+ +K^+)ATPase was purified from the outer medulla of dog kidney; from tissue; host or cells: dog kidney outer medulla, purified membrane enzyme
# Protocol: (§1) More specifically, (Na^+ +K^+)ATPase was purified from the outer medulla of dog kidney using the angle rotor procedure (Jorgensen, P.L., Biochim. Biophys. Acta, 356:36-52 (1974)) and stored frozen at -60° C. at 1.0 mg/ml in 25 mM imidazole-HCl (pH 7.5) and 1.0 mM EDTA, in small aliquots. (Na^+ +K^+)ATPase activity was determined at 37° C. from rate measurements in 1.0 ml of coupled optical assay mixture comprising 20 mM KCl, 100 mM NaCl, 4.5 mM MgSO4, 5.0 mM EGTA, 3.0 mM ATP-Na2, 1.2 mM phosphoenol-pyruvate-tricyclohexylammonium, 0.3 mM NADH, 100 mM TES-Tris (ph 7.4), 5.0 units of lactate dehydrogenase, and 5.0 units of pyruvate kinase (Hamlyn, J.M. et al, Nature, 300:650-652 (1982)). (Na^+ +K^+)ATPase activity was 99% ouabain-inhibitable with activities of 10-18 μmol/min/mg of membrane protein. Maximally effective concentrations of digitalis-like activity had no effect on the enzymatic components of the coupled optical assay as determined by inspection of rates in response to addition of 20-50 μM ADP. The maximal capacity of the coupled optical assay was at least 500-2000 fold greater than the typical maximal hydrolytic rate of the (Na^+ +K^+)ATPase and was not rate limiting under any assay condition described herein.
# The inhibition of (Na^+ +K^+)ATPase was carried out as described above.
# (Na^+ +K^+)ATPase [5] = target: T2, (Na^+ +K^+)ATPase; assay: Competition for ^3 H-ouabain binding to purified (Na^+ +K^+)ATPase; design: species or system dog; conditions: competition for ^3 H-ouabain binding
# Protocol: as §1
# Competition for ^3 H-ouabain (Amersham Corp. or DuPont-New England Nuclear) binding was carried out in 670 μl of binding buffer comprising, in final concentrations, 10 mM TES-Tris (pH 7.4), 0.5 mM EDTA, 5.0 mM MgCl2 and 5.0 mM Na2 HPO4 (hereinafter "binding buffer") and 50 nM ouabain containing ^3 H-ouabain tracer, and including the unknown sample. Binding was initiated by addition of 0.1-2 μg of purified (Na^+ +K^+)ATPase and the reaction performed for 2 hr at 37° C. […] Trapped ^3 H-ouabain was determined by scintillation counting, following 12 hr of soaking the filters in 4.0 ml of Beckman Ready Protein ™ scintillation cocktail (Beckman, Palo Alto, Calif.). […] All binding data were corrected for quench, and specific binding was expressed as pmol/mg of enzyme protein. […]
# (Na^+ +K^+)ATPase [6] = conditions: type II-phosphorylating conditions; cited from earlier work
# digoxin antibodies = conditions: cited from earlier work
# [7] = system: left atria from guinea pigs; assay: Inotropic properties in left atria from guinea pigs; design: species or system guinea pig
# Protocol: Atria were incubated at 37° C. in phosphate buffered saline comprising 130 mM NaCl, 5.4 mM KCl, 1.8 mM MgCl2, 0.4 mM NaH2 PO4, 19 mM NaHCO3 and 5.4 g of glucose (pH 7.3-7.4), and gassed with 95% O2 /5% CO2. Tissues were stimulated at 1 Hz with twice threshold square pulses (0.8 to 1.0 V) of 0.7 to 1.2 msec duration. Resting tension was optimized for maximum isometric force generation. Control records were obtained once the phasic force was stabilized. […] For comparison, 200 nM plant ouabain evoked an inotropic response of 311±41% (N=4 experiments) which returned to normal with a half-time of approximately 5 min upon washout.
# [8] = 50 ml of plasma equivalents from the UV peak at 32 min
structure (smiles),measurement,setting,value
CC1OC(OC2CC(O)C3(CO)C4C(O)CC5(C)C(C6=CC(=O)OC6)CCC5(O)C4CCC3(O)C2)C(O)C(O)C1O (centres unmarked) [human ouabain],rate of loss of inhibitory activity compared with ouabain,[1],significantly greater
same,substrate for COMT,[2],not a substrate for COMT
same,effect on ouabain-insensitive uptake,[3]; [8],no effect
same,inhibition of ouabain-sensitive ^86 Rb uptake,[3]; [8],80%
same,Hill coefficient,[3]; inhibition of ouabain-sensitive uptake of ^86 Rb,-0.99
same,Hill coefficient,(Na^+ +K^+)ATPase [4],-1.28
same,Kd,"(Na^+ +K^+)ATPase [4]; read-out: calculated apparent Kd value, 37° C.",13.9 nM
same,Hill coefficient,(Na^+ +K^+)ATPase [5],-0.97
same,Kd,"(Na^+ +K^+)ATPase [5]; read-out: calculated apparent Kd value, 50 nM ouabain, 2 hr at 37° C.",7.7 nM
same,affinity higher than that of ouabain,(Na^+ +K^+)ATPase [6],12-25 fold
same,cross-reaction with digoxin antibodies,digoxin antibodies,does not cross-react
same,time to plateau of increase in peak force,[7]; 85 nM,34 min
same,activation at 0.17 µM,"[7]; Cavia porcellus, read-out: developed force above the control",294 ± 28%
same,apparent half-time for washout of the inotropic response,[7]; upon washout,approximately 5 min
